Experimental data published in patent US10278942B2 (PELOTON THERAPEUTICS, INC., priority 2015, dated 2019).
Like-named read-outs stand apart in the source and are kept apart here. Blank lines part the entries; values can stand above or below the compound they belong to.

How the values were obtained:
[1] = tested on: rats with hypoxia/semaxanib induced pulmonary arterial hypertension; test: Prevention of PAH by a HIF-2α inhibitor (Example 36)
Procedure: Two rats not exposed to either semaxanib or hypoxia served as hypertrophic sentinels for this study. Rats received a single injection of semaxanib (200 mg/kg, s.c.) on the same day as initiation of test article dosing and introduction to the hypoxic chamber. Rats were kept in hypoxic conditions for the duration of this study. On the twenty-eighth day of test article dosing, the rats were anesthetized with ketamine/xylazine for terminal monitoring of pulmonary and systemic arterial pressures along with heart rate. […]

[2] = tested on: rats with hypoxia/semaxanib induced pulmonary arterial hypertension; test: Effect of HIF-2α inhibition in a model of active PAH (Example 37, interventional)
Description: Rats were kept in hypoxic conditions for the duration of this study. On the fourteenth day of test article dosing, the rats were anesthetized with ketamine/xylazine for terminal monitoring of pulmonary and systemic arterial pressures along with heart rate. […]

[3] = biological target: T1, HIF-2α HIS TAG-PASB Domain (Homo sapiens, UniProt Q99814); test: HIF-2α Scintillation Proximity Assay (SPA); type: binding
T1 construct: 100 nM HIF-2α HIS TAG-PASB Domain
Summary of the method: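 IC50 values rest on percent inhibition, where the sample signal is scaled between high and low controls. Wells contain about 100 μL: compound dispensed as 2 μL of DMSO solution, 88 μL protein-probe mix and 10 μL of beads.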

[4] = tested on: 786-O cells; test: VEGF ELISA Assay; type: cell-based; conditions: Homo sapiens, 786-0
Procedure: Each concentration was plated in duplicate. About 20 hours later, medium was removed by suction and each well was supplied with 180 μL of growth medium. About 20 μl freshly-made 10× compound stocks were added to each well. […] The EC50 was calculated by GraphPad Prism using the dose-response-inhibition (four parameter) equation. The cell-seeded plate was then subjected to CellTiter-Glo luminescence cell viability assay (Promega) by adding 50 μL of Celltiter Glo reagent into each well and shaking the plate for 8 minutes at 550 rpm (Thermomixer R, Eppendorf) then the luminescence signal immediately read in a plate reader (3 second delay, 0.5 second/well integration time, Synergy 2 multi Detection Microplate reader).

[5] = tested on: 786-O-Hif-Luc cells; test: Luciferase Assay (HIF responsive elements reporter)
Procedure: A pool of infected cells were then selected against 2 μg/mL of puromycin (P8833, Sigma) for 10 days followed by limited dilution to select single clones. […] Each concentration was tested in triplicate. After about 24 hours, luciferase activity was determined using ONE-Glo Luciferase Assay Reagent (E6110, Promega) following the manufacturer's recommended procedure. EC50 were calculated using Dotmatics software.

[6] = prevention, 60/day bid oral 28 days, Mean ± SEM
[7] = prevention, Group 4, 30 mg/kg BID
[8] = active PAH, 60/day bid oral Days 15 to 28, Mean ± SEM
[9] = active PAH, Group 4, 60 mg/kg/day 14 days
[10] = read-out: Scintillation Proximity Assay IC50
[11] = read-out: Mean Luciferase EC50 (nM), 786-O-Hif-Luc cells
[12] = Scintillation Proximity Assay IC50 (nM)

T1 sequence (Q99814 240-350 limits assumed): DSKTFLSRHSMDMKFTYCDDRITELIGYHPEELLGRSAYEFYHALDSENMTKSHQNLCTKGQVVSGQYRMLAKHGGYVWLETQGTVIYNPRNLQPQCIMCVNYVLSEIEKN

IC50 [3, 10]: < 50 nM | EC50 [4]: 50 to 249 nM | EC50 [5, 11]: 50 to 249 nM
SMILES: O=S(=O)(CF)c1ccc(OC2CC(F)(F)C2)c2c1[C@H](O)[C@H](F)[C@@H]2F [Compound 578]

IC50 [3, 10]: < 50 nM | EC50 [4]: 50 to 249 nM | EC50 [5, 11]: 50 to 249 nM
SMILES: CS(=O)(=NC#N)c1ccc(Oc2cc(F)cc(C#N)c2)c2c1[C@H](O)C(F)(F)C2 (stereo partly drawn) [Compound 245]

IC50 [3, 10]: < 50 nM | EC50 [4]: 50 to 249 nM | EC50 [5, 11]: 50 to 249 nM
SMILES: O=S(=O)(c1ccc(Oc2cc(F)c[n+]([O-])c2)c2c1[C@H](O)C(F)(F)C2)C(F)(F)F [Compound 310]

IC50 [3, 10]: < 50 nM | EC50 [4]: 250 to 1000 nM | EC50 [5, 11]: 250 to 1000 nM
SMILES: Cc1c(S(=O)(=O)C(F)F)ccc(Oc2cc(F)cc(F)c2)c1C#N [Compound 34]

IC50 [3, 10]: < 50 nM | EC50 [4]: < 50 nM | EC50 [5, 11]: < 50 nM
SMILES: CC(C)Oc1ccc(S(=O)(=O)C(F)(F)F)c2c1CC(F)(F)[C@H]2O [Compound 654]

IC50 [3, 10]: < 50 nM | EC50 [4]: < 50 nM | EC50 [5, 11]: < 50 nM
SMILES: O=S(=O)(c1ccc(OCC2CC2)c2c1[C@H](O)C(F)(F)C2)C(F)(F)F [Compound 656]

IC50 [3, 10]: < 50 nM | EC50 [4]: < 50 nM | EC50 [5, 11]: < 50 nM
SMILES: O[C@H]1c2c(C(F)(F)F)ccc(OCC(F)F)c2CC1(F)F [Compound 579]

IC50 [3, 10]: < 50 nM | EC50 [4]: 250 to 1000 nM | EC50 [5, 11]: 250 to 1000 nM
SMILES: N#Cc1cc(F)cc(Oc2ccc(S(=O)(=O)C(F)F)c(CO)c2Br)c1 [Compound 80]

IC50 [3, 10]: < 50 nM | EC50 [4]: 50 to 249 nM | EC50 [5, 11]: < 50 nM
SMILES: N#Cc1cc(F)cc(Oc2ccc3c(c2Cl)[C@@H](O)C(F)(F)S3(=O)=O)c1 [Compound 431]

IC50 [3, 10]: < 50 nM | EC50 [4]: 50 to 249 nM | EC50 [5, 11]: 50 to 249 nM
SMILES: COC[C@@H](C)Oc1ccc(S(=O)(=O)C(F)(F)F)c2c1CC(F)(F)[C@H]2O [Compound 659]

IC50 [3, 10]: 50 to 249 nM | EC50 [4]: 250 to 1000 nM | EC50 [5, 11]: 50 to 249 nM
SMILES: N#Cc1cc(Oc2ccc(S(=O)(=O)C(F)(F)F)c3c2CC(F)(F)[C@H]3O)c[n+]([O-])c1 [Compound 267]

IC50 [3, 10]: < 50 nM | EC50 [4]: > 1000 nM | EC50 [5, 11]: > 1000 nM
SMILES: N#Cc1c(S(=O)(=O)C(F)(F)F)ccc(Oc2cc(F)cc(Cl)c2)c1Br [Compound 98]

IC50 [3, 10]: < 50 nM | EC50 [4]: < 50 nM | EC50 [5, 11]: < 50 nM
SMILES: O=S(=O)(c1ccc(OC2CCCCC2)c2c1C(O)C(F)(F)C2)C(F)(F)F (stereo not drawn) [Compound 617]

IC50 [3, 10]: < 50 nM | EC50 [4]: 50 to 249 nM | EC50 [5, 11]: 50 to 249 nM
SMILES: CS(=O)(=O)c1ccc(Oc2cncc(C#N)c2)c2c1[C@H](O)C(F)(F)[C@@H]2F [Compound 342]

Second part, the compound before the results:

SMILES: CCCc1nn(C)c2c(=O)[nH]c(-c3cc(S(=O)(=O)N4CCN(C)CC4)ccc3OCC)nc12 [sildenafil]
RV/LV + S ([1]; Fulton's Index, prevention, 60/day bid oral 28 days, Mean ± SEM): 0.52 ± 0.04 | Heart Wt [1, 6]: 1.23 ± 0.03 g | LV Wt [1, 6]: 0.71 ± 0.02 g | Lung Wt [1, 6]: 2.39 ± 0.07 g | MAP [1, 6]: 92 ± 2 mm Hg | Mean PAP [1, 6]: 38 ± 3 mm Hg | RV Wt [1, 6]: 0.36 ± 0.03 g | RV/BW [1, 6]: 1.12 ± 0.10 | Systolic PAP [1, 6]: 55 ± 5 mm Hg | mean percentages of completely muscularized arterioles [1, 7]: 58.7% | mean percentages of non-muscularized arterioles [1, 7]: 1.1% | mean percentages of partially muscularized arterioles [1, 7]: 40.2% | Group mean scores for smooth muscle hypertrophy ([1]; prevention, Group 4, 30 mg/kg BID, lung histopathology): 3.4 | pulmonary arteriolar smooth muscle hypertrophy compared to vehicle ([1]; prevention, histopathology evaluation and arteriole counts): slight decrease | protection versus vehicle (systolic pulmonary arterial pressure) ([1]; prevention, sildenafil group): showed protection versus vehicle | heart rate compared to vehicle ([1]; rat, in vivo): No notable differences | HR ([1]; rat, in vivo, po): 289 ± 11 bpm | Heart Wt [2, 8]: 1.25 g | LV Wt [2, 8]: 0.75 g | LW/BW [2, 8]: 6.68 | Lung Wt [2, 8]: 2.36 g | MAP [2, 8]: 93 mm Hg | Mean PAP [2, 8]: 36 mm Hg | RV Wt [2, 8]: 0.35 g | RV/BW [2, 8]: 0.98 | RV/LV + S [2, 8]: 0.46 | Systolic PAP [2, 8]: 56 mm Hg | Group mean scores for smooth muscle hypertrophy [2, 9]: 2.6 | mean percentages of completely muscularized arterioles [2, 9]: 47.2% | mean percentages of non-muscularized arterioles [2, 9]: 1.1% | mean percentages of partially muscularized arterioles [2, 9]: 51.7% | pulmonary hypertrophy ([2]; active PAH, compared to vehicle): reductions in pulmonary hypertrophy | reduction in RV/BW ratio ([2]; active PAH, sildenafil 30 mg/kg twice daily, p<0.05): 21% | heart rate compared to vehicle ([2]; rat, in vivo): No substantive differences | Body Weight ([2]; rat, in vivo, po): 0.35 kg | HR ([2]; rat, in vivo, po): 298 bpm

SMILES: O=S1(=O)c2ccc(Oc3cc(F)cc(Cl)c3)c(C(F)(F)F)c2C(O)C1(F)F (stereo not drawn) [Compound 360]
IC50 [3, 12]: < 50 nM | EC50 [4]: 50 to 249 nM | EC50 ([5]; read-out: Mean Luciferase EC50 (nM)): 50 to 249 nM

SMILES: O=S(=O)(CF)c1ccc(Oc2cc(F)cc(F)c2)c2c1[C@H](O)C(F)(F)C2 [Compound 64]
IC50 [3, 10]: < 50 nM | EC50 [4]: < 50 nM | EC50 [5, 11]: < 50 nM

SMILES: CCCCOc1ccc(S(=O)(=O)C(F)(F)F)c2c1CC(F)(F)[C@H]2O [Compound 710]
IC50 [3, 10]: < 50 nM | EC50 [4]: 50 to 249 nM | EC50 [5, 11]: < 50 nM

SMILES: N#Cc1cc(F)cc(Oc2ccc(S(=O)(=O)CF)c3c2CC(F)(F)[C@H]3O)c1 [Compound 63]
IC50 [3, 12]: < 50 nM | EC50 [4]: < 50 nM | EC50 [5, 11]: < 50 nM

SMILES: O=S(=O)(CF)c1ccc(O[C@H]2C[C@H](F)C2)c2c1[C@H](O)C(F)(F)[C@@H]2F [Compound 742]
IC50 [3, 10]: < 50 nM | EC50 [4]: < 50 nM | EC50 [5, 11]: < 50 nM

SMILES: O=S(=O)(CF)c1ccc(OC2CC(F)(F)C2)c2c1[C@H](O)C(F)(F)[C@@H]2F [Compound 576, (1S,3R)-4-(3,3-difluorocyclobutoxy)-2,2,3-trifluoro-7-((fluoromethyl)sulfonyl)-2,3-dihydro-1H-inden-1-ol]
IC50 [3, 10]: < 50 nM | EC50 [4]: 50 to 249 nM | EC50 [5, 11]: < 50 nM

SMILES: N#Cc1cncc(Oc2ccc(C(F)(F)F)c3c2CC(F)(F)[C@H]3O)c1 [Compound 303]
IC50 [3, 10]: < 50 nM | EC50 [4]: 50 to 249 nM | EC50 [5, 11]: < 50 nM

SMILES: CS(=O)(=O)c1ccc(Oc2cc(F)cc(F)c2)c2c1[C@H](O)C(F)(F)C2 [Compound 159]
IC50 [3, 10]: < 50 nM | EC50 [4]: < 50 nM | EC50 [5, 11]: < 50 nM

SMILES: O=S1(=O)c2ccc(Oc3cncc(Cl)c3)c(Br)c2[C@@H](O)C1(F)F [Compound 421]
IC50 [3, 10]: 50 to 249 nM | EC50 [4]: 50 to 249 nM | EC50 [5, 11]: 50 to 249 nM

SMILES: N#Cc1cc(F)cc(Nc2ccc(S(=O)(=O)C(F)(F)F)c3c2CC(F)(F)[C@H]3O)c1 [Compound 489, (S)-3-((2,2-difluoro-1-hydroxy-7-((trifluoromethyl)sulfonyl)-2,3-dihydro-1H-inden-4-yl)amino)-5-fluorobenzonitrile]
IC50 [3, 10]: < 50 nM | EC50 [4]: < 50 nM | EC50 [5, 11]: < 50 nM
